The text below walks through data of EP2880993A1, “Method of achieving memory and learning improvement by the administration of sialic acid” (ABBOTT LABORATORIES, priority 2013, dated 2015).

One assay has as its system rats. The assay is described as follows: Y-maze testing, Example 1 (Retention Trial and Memory Trial). In kind it is in vivo, Sprague-Dawley rat. Conditions: PND90. How it is done: In order to establish the role of free sialic acid in cognition, rat pups were supplemented with free N-Acetylneuraminic acid (Neu5Ac) from postnatal day 3 (PND3) and their learning and memory abilities were analyzed later in life. Rat performance in a classical spatial cognitive task (Y-maze) was evaluated once the animals […]. LTP response in hippocampus was also evaluated postnatal day 110 (PND110).
The pups from the second cohort were divided into two groups and given the following designations: the SIA-supplemented group and the Control group. Pups in the SIA - supplemented group were given milk containing low sialic acid, and received a supplementation of free sialic acid since the same day of transfer to the foster mothers until weaning. There were a total of 12 male pups in the SIA -supplemented group. The SIA -supplemented group received free sialic acid supplementation (8 doses/day) in order to reach the same free sialic acid levels as normally reared pups. The amount of free sialic acid given to the SIA-supplemented group was selected to follow the change in concentration of sialic acid in rat milk, ranging from 1.5 g/Kg body weight on day 3 to 0.5 g/Kg body weight at weaning. The amount of sialic acid given to any pup was a maximum of 1.8 mg/Kg body weight on day 8.
The Y-maze is a widely accepted method of testing spatial orientation and memory capabilities in rats. Ten rats in each group were evaluated in the Y-maze. At postnatal day 90 (PND90) for each group, the rats were subjected to a training trial (hereinafter, the "Training Trial"). The approximate equivalent in human years to 90 days of rat life is 10 to 20 years of age. At 5 minutes post training, rats in each group were tested again to test their retention (hereinafter, the "Retention Trial"). At 48 hours post training, rats in each group were tested again to test their memory, (hereinafter, the "Memory Trial").
During the Training Trial, one of the three arms of the Y-maze was blocked, and animals were allowed to explore the other two arms for 15 minutes. During the Retention Trial and the Memory Trial, all three arms were open and animals were allowed to explore for 5 minutes. The amount of time each animal spent at the start of the Y-maze and each arm was evaluated.
During the Memory Trial, performed 48 hours after the Training Trial, a long time spent at the start of the Y-maze denotes anxiety and neophobia. Conversely, the longer time an animal spent at the novel arm indicates an interest in novelty and apparent ability to recognize which arms they had visited previously.

The subject of assay [1] is hippocampal CA3-CAl areas. The assay is described as follows: Long-term potentiation (LTP) testing in vivo, Example 1. Details: species or system Sprague-Dawley rat. Conditions: PND110; for LTP response evoked by the stimulus, in words: compared with Control Group and Reference Group. How it is done:
Long-term potentiation (LTP) measurements were performed in each of the three groups, i.e., the Control Group, the SIA-supplemented Group and the Reference Group. The testing was done while the animals were alive and at postnatal day 110 (PND110). Postnatal day 110 in rats equates to approximately 10 to 20 years of age in the lifespan of a human. Since hippocampus is a key brain structure related to LTP memory, experiments were done in order to determine the functionality of hippocampus in vivo. Long-term potentiation (LTP) is considered as the electrophysiological base of memory. In these experiments, a higher response indicates better memory potential.
The test was performed after implantation of electrodes in the hippocampal CA3-CAl areas of the rats in each group. There were seven rats per group. Each animal had 4 electrodes inserted and LTP measurements were taken from each electrode. Synaptic field potentials in the CAl area were evoked by paired (40 ms of interval) 100 µs, square, biphasic (negative-positive) pulse applied to Schaffer collaterals. For each animal, the stimulus intensity was set well below the threshold for evoking a population spike, usually 30-40% of the intensity necessary for evoking a maximum field excitatory postsynaptic potential ("fEPSP') response. An excitatory postsynaptic potential (EPSP) is a temporary depolarization of postsynaptic membrane potential caused by the flow of positively charged ions into the postsynaptic cell as a result of opening of ligand-gated ion channels.
To evoke LTP, the following high frequency stimulation (HFS) protocol was used: each animal was subjected to five 200 Hz, 100 ms trains of pulses at a rate of l/s. These trains were presented 6 times in total, at intervals of 1 minutes. After the HFS protocol, fEPSPs were recorded again for 30 minutes. Additional recordings were carried out for 15 minutes during the 3 following days.
FIG. 3 depicts the results of the Long-term Potentiation Testing. FIG. 3 illustrates the results of induction of LTP by the use of a high-frequency stimulation (HFS) protocol. Results correspond to the slope of the field excitatory postsynaptic potential ("fEPSP') evoked by a second electronic pulse (which took place 40 ms after a first pulse). Significant differences (p < 0.05) are indicated by the following signs: "*" indicates the differences between the SIA-supplemented Group and the Control Group; and "†" indicates the differences between the Reference Group and the Control Group. Average baseline fEPSP for each group was assigned the value of 100, and the rest of the fEPSP were referred to that value.

Where [2] appears, read: Memory Trial 48 hours post training, read from FIG. 2.

Each structure is given as a SMILES string.

Consider `CC(=O)N[C@H]1[C@H]([C@H](O)[C@H](O)CO)OC(O)(C(=O)O)C[C@@H]1O` (some centres unmarked) [SIA, N-Acetylneuraminic acid], for which, in the assay on rats (setting [2]), the “time spent in the novel arm” value is “about 65 seconds” and the “time spent in the start arm” value is “about 40 seconds”. Besides, in the assay on rats (compared with Reference Group / non-supplemented control animals, listed as free sialic acid), the “Y-maze performance, in words” value is “performed better and similarly to reference animals”. Besides, the “novel arm preference (percentage of animals that preferred the novel arm first)” value with rats (Retention Trial 5 minutes post training, pups supplemented PND3 to weaning, read from FIG. 1) was “about 57%”. For the same molecule, in assay [1] (72 hours post stimulus), the “persistence of LTP response” value was “remained at high levels”. The “fEPSP slope after high-frequency stimulation” value in assay [1] (average baseline fEPSP assigned the value of 100, FIG. 3) is “about 220”. For the same molecule, in assay [1] (baseline = 100, FIG. 3), the “fEPSP slope forty-eight hours after high-frequency stimulation” value is given as approximately 160, the “fEPSP slope seventy-two hours after high-frequency stimulation” value was approximately 140 and the “fEPSP slope twenty-four hours after high-frequency stimulation” value is on record as “about 205”. Further, the “LTP response evoked by the stimulus, in words” value in assay [1] is reported as “strongest response”. Moreover, in assay [1] (listed as free sialic acid), the “LTP response evoked by the stimulus, in words” value is reported as “significantly higher LTP response levels than those of the control group”.
